Read-outs that look alike come from different tables or passages of the source.
Assays:
[1] = system: platelet aggregation (ADP); experiment: Platelet aggregation in vitro, ADP-induced (rabbit platelet rich plasma); type: cell-based; conditions: Oryctolagus cuniculus
Method: (§1) Platelet rich plasma (PRP) which contains 6-7×10^8 platelets/ml was prepared from rabbit blood. To the 200 μl of PRP, 5 μl of calcium chloride (1 mM) and 50 μl of 25 mM Tris-acetate solution (pH 7.4) containing 120 mM NaCl or test compound were added successively, and then stirred for 2 min. at 37° C. […] Aggregation was measured by using an aggregometer. (NKK HEMA-TRACER 1).

[2] = system: platelet aggregation (collagen); experiment: Platelet aggregation in vitro, collagen-induced (rabbit platelet rich plasma); type: cell-based; conditions: Oryctolagus cuniculus
Method: as §1

[3] = system: platelet aggregation (collagen); experiment: Platelet aggregation ex vivo, collagen-induced, after oral administration to rats; type: in vivo, Sprague-Dawley rats; conditions: 1 hour after dosing, collagen 5.0 μg/ml
Method: Male Sprague-Dawley rats weighing about 250 g were used after overnight fasting. One hour after oral administration of test compound or vehicle of test compound (control), blood was collected into a tube containing 0.1 vol. of 3.8% sodium citrate. To the 0.45 ml of blood, 0.05 ml of collagen (final concentration 5.0 μg/ml) was added and then incubated for 5 min. at 37° C. under shaking.
The reaction was terminated by addition of 1 ml of 10 mM phosphate buffered saline (pH 7.4) containing 11.5 mM EDTA and 1% formalin. The reaction mixture was centrifuged at 70×g for 5 min. and platelet count of upper phase was measured by Technicon Auto Analizer.
Platelet aggregation was calculated according to the following formula: [formula] A. Platelet count after addition of vehicle of collagen B. Platelet count after addition of collagen
Inhibition of the test compound was calculated according to the following formula; [formula] C. Platelet aggregation (%) of control D. Platelet aggregation (%) of Test compound

[4] = system: acetic acid-induced writhing; experiment: Acetic acid-induced writhing syndrome; type: in vivo, Scl:ddy strain mice; conditions: 32 mg/kg oral, 60 min before 0.6% acetic acid i.p., 3-13 min count; * P < 0.01
Method: Male Scl:ddy strain mice aged 6 weeks were used in groups of 10. The test compound was suspended in methylcellulose and administered orally. After 60 min., 20 ml/kg of 0.6% acetic acid solution was administered i.p. and writhing episodes between 3 and 13 min. after acetic acid injection were counted. The data was analyzed statistically by student's t-test.

systemic anaphylaxis = experiment: Systemic anaphylaxis (passive sensitization with rabbit anti-ovalbumin serum, ovalbumin aerosol); type: in vivo, Hartley guinea pigs; conditions: 30 min before antigen aerosol
Method: Male Hartley guinea pigs (300-400 g, n=5) were passively sensitized with i.v. injection of rabbit anti-ovalbumin serum. 24 Hours later, test compound was administered orally. 30 Min. after administration of test compound, sensitized animals were placed for 2 min. in a chamber filled with antigen aerosol (ovalbumin) by a conventional nebulizer. Survived animals were regarded as being protected from systemic anaphylaxis.

carrageenin foot edema = experiment: Carrageenin foot edema; type: in vivo, Sprague-Dawley rats; conditions: 320 mg/kg oral, 60 min before phlogogen, edema at 3 hours; * P < 0.05
Method: Male Sprague-Dawley rats weighing about 180 g were used in groups of five. Paw edema was induced by subplantar injection of 1% carrageenin (0.1 ml/rat) into the right hind paw in carrageenin foot edema. The test compound was suspended in methylcellulose and administered orally 60 minutes before phlogogen. Paw volume was measured with plethysmometer (Ugo Basil Co., Ltd.) by water displacement immersing the paw to the lateral malleolus. The difference of paw volume before and 3 hours after the phlogogen was designated as edema volume. The data analyzed statistically by student's t-test.

SMILES	IC50 ([1]; pH 7.4, read-out: ID50 ADP (dose required to inhibit platelet aggregation by 50%)) [µM]	IC50 ([2]; pH 7.4, read-out: ID50 Collagen (dose required to inhibit platelet aggregation by 50%)) [µM]	Inhibition (%) of platelet aggregation ex vivo ([3]; 10 mg/kg oral) [%]	Inhibition (%) of platelet aggregation ex vivo ([3]; 32 mg/kg oral) [%]	Inhibition (%) of platelet aggregation ex vivo ([3]; 100 mg/kg oral) [%]	Inhibition (%) of acetic acid-induced writhing [4] [%]	IC50 ([1]; inducer ADP (2.5 μM), rabbit PRP, pH 7.4, 37° C, read-out: ID50 ADP (dose required to inhibit platelet aggregation by 50%)) [µM]	Survival (%) (systemic anaphylaxis; 10 mg/kg oral)	Survival (%) (systemic anaphylaxis; 100 mg/kg oral)	IC50 ([2]; inducer collagen (2.5 μg/ml), rabbit PRP, pH 7.4, 37° C, read-out: ID50 Collagen (dose required to inhibit platelet aggregation by 50%)) [µM]	Inhibition (%) of carrageenin foot edema (carrageenin foot edema) [%]
CC(=O)Oc1ccccc1C(=O)O [Aspirin, reference compound]	3200	31	–	–	–	–	–	–	–	–	–
Cl.NN1CCN(C(=O)Cn2c(=O)sc3ccc(Cl)cc32)CC1 [Example 5, 5-chloro-3-[(4-amino-1-piperazinyl)carbonylmethyl]-2-benzothiazolinone hydrochloride]	–	–	2	67	100	32.8	14	20	100	14	40.0
